Measured values taken from PubChem BioAssay AID1963862 (Molecular Pharmacology Branch, DTP, NCI, 2024).

System: KRAS patient-derived spheroids with HUVEC/MSC, viability
Experiment: Anticancer human tumor 941728-121-R-J1-PDC patient-derived lung adenocarcinoma cell line growth inhibition [KRAS2]
Conditions: for IC50: curve of first compound; for viability, T/C: stronger effect = lower value
In short: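 KRAS-mutant tumor cells were grown as spheroids with HUVEC endothelial cells and human MSCs as stroma. Targeted agents were tested alone and with KRAS pathway inhibitors. Doses started at or near clinical Cmax, or 10 microM, descending half-log.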

[1] = second compound 0.1 µM, first compound 0.0316 µM
[2] = second compound 0.1 µM, first compound 0.1 µM
[3] = second compound 0.316 µM, first compound 0.0316 µM
[4] = second compound 0.316 µM, first compound 0.1 µM
[5] = second compound 1 µM, first compound 0.0316 µM
[6] = second compound 1 µM, first compound 0.1 µM
[7] = second compound 3.16 µM, first compound 0.0316 µM
[8] = second compound 3.16 µM, first compound 0.1 µM
[9] = second compound 10 µM, first compound 0.0316 µM
[10] = second compound 10 µM, first compound 0.1 µM
[11] = second compound 0.1 µM, first compound 0.000316 µM
[12] = second compound 0.1 µM, first compound 0.001 µM
[13] = second compound 0.1 µM, first compound 0.00316 µM
[14] = second compound 0.1 µM, first compound 0.01 µM
[15] = second compound 0.316 µM, first compound 0.000316 µM
[16] = second compound 0.316 µM, first compound 0.001 µM
[17] = second compound 0.316 µM, first compound 0.00316 µM
[18] = second compound 0.316 µM, first compound 0.01 µM
[19] = second compound 1 µM, first compound 0.000316 µM
[20] = second compound 1 µM, first compound 0.001 µM
[21] = second compound 1 µM, first compound 0.00316 µM
[22] = second compound 1 µM, first compound 0.01 µM
[23] = second compound 3.16 µM, first compound 0.000316 µM
[24] = second compound 3.16 µM, first compound 0.001 µM
[25] = second compound 3.16 µM, first compound 0.00316 µM
[26] = second compound 3.16 µM, first compound 0.01 µM
[27] = second compound 10 µM, first compound 0.000316 µM
[28] = second compound 10 µM, first compound 0.001 µM
[29] = second compound 10 µM, first compound 0.00316 µM
[30] = second compound 10 µM, first compound 0.01 µM
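Further: spheroids exposed to agents for seven days before readout.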

With CC(C)NCC(C(=O)N1CCN(c2ncnc3c2C(C)CC3O)CC1)c1ccc(Cl)cc1 (stereo not given) + CNCc1ccccc1-c1csc(C(C)Nc2nc(C)nc3cc(OC)c(OC)cc23)c1 the IC50 (second compound 0.1 µM) was 218 nM, the IC50 (second compound 0.316 µM) was < 31.6 nM and the IC50 (second compound 1 µM) was < 31.6 nM. The IC50 (second compound 3.16 µM) was < 31.6 nM, the IC50 (second compound 10 µM) was < 31.6 nM and the viability, T/C [1] was 68.6%. For the same molecule, the viability, T/C [2] was 57%, the viability, T/C (second compound 0.1 µM, first compound 0.316 µM) was 47.9% and the viability, T/C (second compound 0.1 µM, first compound 1 µM) was 33.3%. It also gave a viability, T/C (second compound 0.1 µM, first compound 3.16 µM) of 28.1%, a viability, T/C (second compound 0.1 µM, first compound 10 µM) of 16.6% and a viability, T/C [3] of 42.3%. For the same molecule, the viability, T/C [4] was 42.9%, the viability, T/C (second compound 0.316 µM, first compound 0.316 µM) was 29.1% and the viability, T/C (second compound 0.316 µM, first compound 1 µM) was 24.7%. The viability, T/C (second compound 0.316 µM, first compound 3.16 µM) was 22.4%, the viability, T/C (second compound 0.316 µM, first compound 10 µM) was 12.4% and the viability, T/C [5] was 23.9%. For the same molecule, the viability, T/C [6] was 33.2%, the viability, T/C (second compound 1 µM, first compound 0.316 µM) was 21.2% and the viability, T/C (second compound 1 µM, first compound 1 µM) was 16.1%. The viability, T/C (second compound 1 µM, first compound 3.16 µM) was 6.11%, the viability, T/C (second compound 1 µM, first compound 10 µM) was 4.4% and the viability, T/C [7] was 0.08%. The viability, T/C [8] was 0.12%, the viability, T/C (second compound 3.16 µM, first compound 0.316 µM) was 0.11% and the viability, T/C (second compound 3.16 µM, first compound 1 µM) was 0.08%. For the same molecule, the viability, T/C (second compound 3.16 µM, first compound 3.16 µM) was 0.04%, the viability, T/C (second compound 3.16 µM, first compound 10 µM) was 0.16% and the viability, T/C [9] was 0.16%. For the same molecule, the viability, T/C [10] was 0.15%, the viability, T/C (second compound 10 µM, first compound 0.316 µM) was 0.12% and the viability, T/C (second compound 10 µM, first compound 1 µM) was 1.66%. It also gave a viability, T/C (second compound 10 µM, first compound 3.16 µM) of 0.11% and a viability, T/C (second compound 10 µM, first compound 10 µM) of 0.25%.
With CN(C)C/C=C/C(=O)Nc1cc2c(Nc3ccc(F)c(Cl)c3)ncnc2cc1O[C@H]1CCOC1 + C=CC(=O)N1CCN(c2nc(=O)n(-c3c(C)ccnc3C(C)C)c3nc(-c4c(O)cccc4F)c(F)cc23)C(C)C1 the IC50 (second compound 0.1 µM) was < 0.316 nM, the IC50 (second compound 0.316 µM) was < 0.316 nM and the IC50 (second compound 1 µM) was < 0.316 nM. The IC50 (second compound 3.16 µM) was < 0.316 nM, the IC50 (second compound 10 µM) was < 0.316 nM and the viability, T/C [11] was 18.1%. For the same molecule, the viability, T/C [12] was 17.1%, the viability, T/C [13] was 16.2% and the viability, T/C [14] was 15.5%. For the same molecule, the viability, T/C [1] was 15.9%, the viability, T/C [2] was 14.3% and the viability, T/C [15] was 17%. For the same molecule, the viability, T/C [16] was 17.6%, the viability, T/C [17] was 15.6% and the viability, T/C [18] was 15.3%. The viability, T/C [3] was 16.7%, the viability, T/C [4] was 16.4% and the viability, T/C [19] was 20.6%. For the same molecule, the viability, T/C [20] was 19.9%, the viability, T/C [21] was 18.1% and the viability, T/C [22] was 15.7%. For the same molecule, the viability, T/C [5] was 16.5%, the viability, T/C [6] was 15.9% and the viability, T/C [23] was 21.5%. It also gave a viability, T/C [24] of 20.9%, a viability, T/C [25] of 19.4% and a viability, T/C [26] of 17.9%. The viability, T/C [7] was 18.9%, the viability, T/C [8] was 17.3% and the viability, T/C [27] was 26.3%. For the same molecule, the viability, T/C [28] was 22.5%, the viability, T/C [29] was 23.6% and the viability, T/C [30] was 17.7%. For the same molecule, the viability, T/C [9] was 20.7% and the viability, T/C [10] was 19%.
CC(=O)Nc1cccc(-n2c(=O)n(C3CC3)c(=O)c3c(Nc4ccc(I)cc4F)n(C)c(=O)c(C)c32)c1 + CNCc1ccccc1-c1csc(C(C)Nc2nc(C)nc3cc(OC)c(OC)cc23)c1 was tested, and the IC50 (second compound 0.1 µM) was 0.119 nM, the IC50 (second compound 0.316 µM) was < 0.1 nM and the IC50 (second compound 1 µM) was < 0.1 nM. The IC50 (second compound 3.16 µM) was < 0.1 nM, the IC50 (second compound 10 µM) was < 0.1 nM and the viability, T/C (second compound 0.1 µM, first compound 0.0001 µM) was 51.3%. The viability, T/C [11] was 46.8%, the viability, T/C [12] was 38.1% and the viability, T/C [13] was 37.7%. The viability, T/C [14] was 35.7%, the viability, T/C [1] was 27.9% and the viability, T/C (second compound 0.316 µM, first compound 0.0001 µM) was 44.4%. It also gave a viability, T/C [15] of 44.1%, a viability, T/C [16] of 34.2% and a viability, T/C [17] of 31.8%. It also gave a viability, T/C [18] of 30.5%, a viability, T/C [3] of 21.9% and a viability, T/C (second compound 1 µM, first compound 0.0001 µM) of 35.3%. It also gave a viability, T/C [19] of 33%, a viability, T/C [20] of 26.8% and a viability, T/C [21] of 23%. It also gave a viability, T/C [22] of 14%, a viability, T/C [5] of 7.52% and a viability, T/C (second compound 3.16 µM, first compound 0.0001 µM) of 0.3%. For the same molecule, the viability, T/C [23] was 0.14%, the viability, T/C [24] was 0.76% and the viability, T/C [25] was 0.17%. It also gave a viability, T/C [26] of 0.16%, a viability, T/C [7] of 0.25% and a viability, T/C (second compound 10 µM, first compound 0.0001 µM) of 0.16%. For the same molecule, the viability, T/C [27] was 0.16%, the viability, T/C [28] was 0.17% and the viability, T/C [29] was 0.15%. The viability, T/C [30] was 0.14% and the viability, T/C [9] was 0.26%.
